Data taken from the OPERA property sets (Mansouri et al. 2018).
Values after ≈ are worked out from the molar mass of the structure shown.

Structure (SMILES) | solubility (25 °C) | solubility (20 °C) | further results
CC1=C(C(=O)O)CCC1(C)C | 1.3 mM (≈ 200 µg/mL) | – | –
CCCCCCCCCCNC(=O)c1cccnc1 | 0.838 mM (≈ 220 µg/mL) | – | –
CNc1ncc2nccnc2n1 | – | 19.4 mM (≈ 3130 µg/mL) | –
CCOC(OCC)C(C)=O | – | – | solubility: 622 mM (≈ 91000 µg/mL)
CCCCC(=O)NCCNC(=O)CCCC | 15.3 mM (≈ 3500 µg/mL) | – | –
COC[C@@H](N)C(=O)O (racemic) | – | 4490 mM (≈ 535000 µg/mL) | –
CC(C)CC(c1ccc(O)cc1)c1ccc(O)cc1 | – | – | solubility: 0.429 mM (≈ 110 µg/mL)
CCCC(O)CC(C)C (configuration not stated) | 12.4 mM (≈ 1610 µg/mL) | – | –
CC(C)[C@@H](Br)C(=O)O | 78.9 mM (≈ 14300 µg/mL) | – | –
O=C(O)c1cc(Br)co1 | – | 65.4 mM (≈ 12500 µg/mL) | –
O=C1OCc2ccc(Br)cc21 | 2.25 mM (≈ 480 µg/mL) | – | –
O=C(O)C1=CCCc2ccccc21 | – | – | solubility: 1.61 mM (≈ 280 µg/mL)
C=CC1=C(C)C(=Cc2[nH]c(Cc3[nH]c(C=C4NC(=O)C(C)=C4C=C)c(C)c3CCC(=O)O)c(CCC(=O)O)c2C)NC1=O | 0.0154 mM (≈ 9 µg/mL) | – | –
NC(=S)Nc1cccc([N+](=O)[O-])c1 | – | 35.5 mM (≈ 7000 µg/mL) | –
C#CC#CC=C=CCCO | 12.9 mM (≈ 1700 µg/mL) | – | –
O=NC1=C(NO)CCC1 | – | – | solubility (24 °C): 10.1 mM (≈ 1300 µg/mL)
Cn1c(=O)c2nccnc2n(C)c1=O | – | 34.7 mM (≈ 6670 µg/mL) | –
CC(C)=NNC(N)=O | – | 540 mM (≈ 62200 µg/mL) | –
O=C(O)c1ccccc1C(=O)c1ccc(Br)cc1 | – | – | solubility (30 °C): 0.983 mM (≈ 300 µg/mL)
CCCCCCCCCC(C(=O)O)C(=O)O | 0.499 mM (≈ 115 µg/mL) | – | –
CCCCCN(N=Cc1ccc([N+](=O)[O-])o1)C(N)=O | 1.27 mM (≈ 340 µg/mL) | – | –

Structure (SMILES) | solubility (25 °C) | solubility (20 °C) | further results
Oc1nc2ccccc2nc1O | 1.54 mM (≈ 250 µg/mL) | – | –
N#CC1CCCC1=O (configuration not stated) | – | – | solubility: 440 mM (≈ 48000 µg/mL)
CCCCOC(=O)C(C)OC(=O)C(C)O (configuration not stated) | 42.2 mM (≈ 9200 µg/mL) | – | –
CC(O)C(C)Cl (configuration not stated) | – | 613 mM (≈ 66600 µg/mL) | –
CCC(CC)(C(=O)O)C(CC)(CC)C(=O)O | 1.09 mM (≈ 250 µg/mL) | – | –
CCCCC(=O)Oc1ccc([N+](=O)[O-])cc1 | 0.0403 mM (≈ 9 µg/mL) | – | –
O=c1cccc2[nH]ccnc1-2 | – | 45 mM (≈ 6580 µg/mL) | –
O=C1CCCCCCCCN1 | – | – | solubility (22 °C): 84.4 mM (≈ 13100 µg/mL)
CC(=O)C(=O)c1ccccc1 | – | 17.5 mM (≈ 2600 µg/mL) | –
OCC1=C[C@@H](O)[C@@H]2C=CO[C@@H](OC3OC(CO)C(O)C(O)C3O)[C@H]12 (some centres not stated) | – | 1030 mM (≈ 356000 µg/mL) | –
c1ccc(CCNCc2ccccc2)cc1 | – | – | solubility (24 °C): 1.89 mM (≈ 400 µg/mL)
CCC1(C)OC(=O)NC1=O (configuration not stated) | 1050 mM (≈ 150000 µg/mL) | – | –
CC(=O)Nc1ccc(/C=N/NC(N)=S)cc1 | – | 0.372 mM (≈ 88 µg/mL) | –
CCCCCOC(=O)C(C)O (configuration not stated) | 62.4 mM (≈ 10000 µg/mL) | – | –
CN(C)c1nc2c[nH]cnc-2n1 | – | 40.9 mM (≈ 6670 µg/mL) | –
CC(C)(C)S(=O)(=O)C(C)(C)C | – | 60.6 mM (≈ 10800 µg/mL) | –
ON=C1CCCCCCCCC1=NO | 2.62 mM (≈ 520 µg/mL) | – | –
Cn1cc2nccnc2nc1=O | – | 123 mM (≈ 20000 µg/mL) | –
N#CCC(=O)Nc1ccccc1 | – | – | solubility (23 °C): 1.87 mM (≈ 300 µg/mL)
Nc1cc([N+](=O)[O-])ccc1O | – | – | solubility (23 °C): 6 mM (≈ 925 µg/mL)
S=c1[nH]sc(=S)[nH]1 | – | 17.3 mM (≈ 2600 µg/mL) | –
